# Results taken from patent US8771953B2, “Evaluation of the potential risk of drug induced mood disturbance and suicide: use of a dedicated platform” (Biocortech, priority 2008, dated 2014).
# Where two headings read alike, the source gives them in different places. Marks after values point to notes of the source that are not given here.
# Experiments:
# ADAR2 mRNA = test: Q-PCR of ADAR2 mRNA expression in SH-SY5Y cells; assay type: cell-based; settings: Homo sapiens, 10 micromolar, 24 hours, read-out: QPCR: RNA expresion (% of variation) ADAR2
# Procedure: (§1) The SH-SY5Y Human neuroblastoma cell line was purchased from ECACC (EC94030304 from the European Collection of Cell Cultures (ECACC)). The cell line SH-SY5Y is a thrice-cloned neuroblastoma, originally from SK-N-SH and first reported in 1978. A neuroblast-like subclone of SK-N-SH, named SH-SY, was subcloned as SH-SY5, which was subcloned again as SH-SY5Y (Biedler J L et al. Cancer Res. 1978; 38:3751-7). Cells were cultured in high glucose D-MEM medium (Sigma, ref D6546) supplemented with 10% dialysed FCS (PAA, ref. A15-507, lot A50708-0050), 2 mM Glutamine (Sigma, G7513) and a 1× mix of Antibiotic-Antimycotic Stabilized (Sigma, ref. A5955) at 37° C. under a humidified atmosphere of 5% CO2. The day preceeding drug or hIFNα treatment, SH-SY5Y cells were plated in 6-well plates at a density of 10^6 cells/well. One 6-well plate was used per experimental condition (concentration or treatment duration). The day after plating, culture medium was removed and cells were incubated for 24 hours with a 10 μM solution of the compound to be tested molecules or a 1000 IU/ml solution of hIFNα (PBL biomedical laboratories). For hIFNα dose-response experiment cells were incubated with 1, 10, 100, and 1000 IU/ml of hIFNα solutions. For hIFNα time-course experiment cells were treated for 24, 48, or 72 hours with a 1000 IU/ml solution of hIFNα. After the different treatments, cells were directly lysed in RLT lysis buffer and total RNA purified according to manufacturer's protocol (Qiagen, RNeasy Plus mini kit, ref. 74134). Total RNA was then reverse transcribed with Thermoscript RT-PCR system Plus Taq (Invitrogen, 11146-032) and the resulting cDNA used for CE-SSCP and quantitative real-time PCR.
# (§2) In order to quantify levels of 5-HT2CR, ADAR1 and ADAR2 mRNA expression in SH-SY5Y cells or in prefrontal cortex, total blood and skin of Balb/cJ mice, first-strand cDNA was synthesized by reverse transcription and subjected to TaqMan quantitative real-time PCR analysis (Applied Biosystems). All probes and primers used for the quantitative PCRs were from Applied Bio systems (Gene Expression Assays, Assay-On-Demand) (see Table 1, Applied Biosystems primers and probes references): […]
# (§3) Human GAPDH (product no. 4326317E; Applied Biosystems) or mouse GAPDH (product no. 4352339E; Applied Biosystems) were included in each multiplex PCR as an internal control. Real-time PCR and subsequent analysis were performed with a 48-well block StepOne RT PCR system (Applied Biosystems). Quantification of target gene expression in all samples was normalized to GAPDH expression by the equation Ct (target)−Ct (GAPDH)=ΔCt, where Ct is the threshold cycle number. The mean ΔCt value of samples from untreated mice or cells was determined and used as a reference point for the samples corresponding to treated animals or cells. Differences between untreated and treated animals or cells, including individual variation were calculated by the equation (ΔCt (individual treated samples)−ΔCt (mean of untreated samples)=ΔΔCt). Changes in target gene expression (n-fold) in each sample were calculated by 2^−ΔΔCt, from which the means and standard deviations (SD) were derived.
# (§4) The SH-SY5Y Human neuroblastoma cell line was purchased from ECACC. Cells were cultured in high glucose D-MEM medium (Sigma, ref. D6546) supplemented with 10% dialysed FCS (PAA, ref. A15-507, lot A50708-0050), 2 mM Glutamine (Sigma, ref. G7513) and a 1× mix of Antibiotic-Antimycotic Stabilized (Sigma, ref. A5955) at 37° C. under a humidified atmosphere of 5% CO2. The day preceeding hIFNα or drug treatment, SH-SY5Y cells were plated in 6-well plates (Corning, Multiwell Plate, 6 well, Corning CellBIND Surface, ref 3335) at a density of 5; 7 or 9·10^6 cells/well for a 72-, 48- or 24-hour treatment respectively. Six or eight wells of 6-well plates were used per experimental condition (control, concentration or treatment duration).
# 5-HT2cR mRNA = test: Editing profile of 5-HT2cR mRNA isoforms by CE-SSCP (nested PCR) in SH-SY5Y cells; enzyme activity indexes worked out from the profile; assay type: cell-based, human; settings: for activation at 10 µM: Homo sapiens
# ADAR1a mRNA = test: Q-PCR of ADAR1a mRNA expression in SH-SY5Y cells; assay type: cell-based; settings: Homo sapiens, 10 micromolar, 24 hours, read-out: QPCR: RNA expresion (% of variation) ADAR1a
# Excerpt: ADAR1a RNA Expression in SH-SY5Y cells (Q-PCR, Applied TaqMan probes ref: Hs 01020780_m1).
# as §1, §2, §3, §4
# ADAR1b mRNA = test: Q-PCR of ADAR1b mRNA expression in SH-SY5Y cells; assay type: cell-based; settings: Homo sapiens, 10 micromolar, 24 hours, read-out: QPCR: RNA expresion (% of variation) ADAR1b
# Procedure: as §1, §2, §3, §4
# [1] = SH-SY5Y, 10 micromolar, 24 hours, read-out: ENZYME ACTIVIY INDEX (% of variation) ADAR1
# [2] = SH-SY5Y, 10 micromolar, 24 hours, read-out: ENZYME ACTIVIY INDEX (% of variation) ADAR1 + 2
# [3] = SH-SY5Y, 10 micromolar, 24 hours, read-out: ENZYME ACTIVIY INDEX (% of variation) ADAR2
# [4] = SH-SY5Y, 10 micromolar, 24 hours, read-out: ENZYME ACTIVIY INDEX (% of variation) ADARI
# [5] = SH-SY5Y, 10 micromolar, 24 hours, read-out: ENZYME ACTIVIY INDEX (% of variation) ADARII
# [6] = SH-SY5Y, 10 micromolar, 24 hours, read-out: ENZYME ACTIVIY INDEX (% of variation) NE
Compound,percent change in ADAR2 mRNA expression at 10 µM (ADAR2 mRNA) [%],activation at 10 µM (5-HT2cR mRNA; [1]) [%],activation at 10 µM (5-HT2cR mRNA; [2]) [%],activation at 10 µM (5-HT2cR mRNA; [3]) [%],activation at 10 µM (5-HT2cR mRNA; [4]) [%],activation at 10 µM (5-HT2cR mRNA; [5]) [%],activation at 10 µM (5-HT2cR mRNA; [6]) [%],% change in ADAR1a mRNA expression at 10 µM (ADAR1a mRNA) [%],percent change in mRNA expression at 10 µM (ADAR1b mRNA) [%],"alteration of 5-HT2cR mRNA editing compared with that observed after INFα treatment (component analysis, FIG. 4) (5-HT2cR mRNA; SH-SY5Y cells, 48 hours, 10 μM)","ENZYME ACTIVIY INDEX (% of variation) EC (5-HT2cR mRNA; SH-SY5Y, 10 micromolar, 24 hours)","activation at 10 µM (5-HT2cR mRNA; SH-SY5Y, 24 h, read-out: ENZYME ACTIVIY INDEX (% of variation) ADAR1) [%]","activation at 10 µM (5-HT2cR mRNA; SH-SY5Y, 24 h, read-out: ENZYME ACTIVIY INDEX (% of variation) ADAR1 + 2) [%]","activation at 10 µM (5-HT2cR mRNA; SH-SY5Y, 24 h, read-out: ENZYME ACTIVIY INDEX (% of variation) ADAR2) [%]","activation at 10 µM (5-HT2cR mRNA; SH-SY5Y, 24 h, read-out: ENZYME ACTIVIY INDEX (% of variation) ADARI) [%]","activation at 10 µM (5-HT2cR mRNA; SH-SY5Y, 24 h, read-out: ENZYME ACTIVIY INDEX (% of variation) ADARII) [%]","activation at 10 µM (5-HT2cR mRNA; SH-SY5Y, 24 h, read-out: ENZYME ACTIVIY INDEX (% of variation) NE) [%]"
CC(NC(C)(C)C)C(=O)c1cccc(Cl)c1 (centres unmarked) [Bupropion],-40,-16.3,42.6,68.9,-8.9,34.7,5.3,-66,-51,–,–,–,–,–,–,–,–
NS(=O)(=O)Cc1noc2ccccc12 [Zonisamide],-23,11.9,9.7,-7.8,11.5,6.3,-10.5,-24,-19,–,–,–,–,–,–,–,–
Cc1c(C(=O)NN2CCCCC2)nn(-c2ccc(Cl)cc2Cl)c1-c1ccc(Cl)cc1 [Rimonabant],-7,13.3,2.4,-3.7,11.3,1.2,-10.4,-43,-32,similarly altered,–,–,–,–,–,–,–
NC(=O)N1c2ccccc2CC(=O)c2ccccc21 [Oxcarbazepine],-15,1.1,-25.6,-25.9,-3.9,-25.6,4.8,-28,-18,–,−65.2* %,–,–,–,–,–,–
O=c1n(CCCN2CCN(c3cccc(Cl)c3)CC2)nc2ccccn12 [Trazodone],5,0,89.3,28.4,12.9,77.7,13.4,-60,-40,–,–,–,–,–,–,–,–
NCC1(CC(=O)O)CCCCC1 [Gabapentin],-21,–,–,–,–,–,–,-42,-34,–,–,19.2,-28.5,-26.7,10.1,-28.1,-8.3
CC1(C)O[C@@H]2[C@@H](CO[C@@]3(COS(N)(=O)=O)OC(C)(C)O[C@@H]23)O1 [Topiramate],-60,14.4,-19.5,11.4,8,-13.5,-8,-44,-46,–,–,–,–,–,–,–,–
